The structures appear in SMILES notation. Where two headings read alike, the source gives them in different places.

One experiment has as its system growth of plants. Conditions: Ries et al. and others; cited from earlier work.
Experiment [1] has as its system physical performance of athletes. The conditions noted are these: vegetable oil bases, oral ingestion; U.S. Pat. No. 3,031,376; cited from earlier work.
Experiment [2] concerns LP-BM 5 MuLV ecotropic virus. As to the kind of experiment: Percent virus inhibition / plaque count of LP-BM 5 MuLV ecotropic virus using XC indicator cells. The experiment is classed as cell-based. The conditions noted are these: for inhibition at 0.5 µg/mL / inhibition at 5 µg/mL / inhibition at 50 µg/mL / inhibition at 500 µg/mL: read-out: % decrease. Here is the method: A composition a composition consisting essentially of aliphatic alcohols having 22 carbons in the aliphatic chain in micelle suspension, […], was introduced into cultures of LP-BM 5 MuLV ecotropic virus, […], and the percent of virus inhibition, as compared with controls continuing only PBS buffer, indicated by cell-fusion activity and cell plaque count, using XC indicator cells (Virology 42:1136, 1970), was determined.
The effect of the C-20 to C-26 alcohols of this invention on ecotropic virus was further confirmed and compared with AZT.

The test system of the next experiment is inflammatory disorders. Conditions: Clark, U.S. Pat. No. 4,670,471; cited from earlier work.
Experiment [3] has as its system collagen-induced arthritis. The experiment can be described thus: Treatment of collagen-induced arthritis (CIA) in DBA/1 mice. The experiment is classed as in vivo. Here is the method:
DBA/1 mice were injected intradermally at the base of the tail on days zero and 28 with 20 μg chick type II collagen emulsified in CFA. The mammals were followed for clinical signs of arthritis, i.e., joint erythema, edema, and loss of function. The data illustrated in FIG. 1 were derived from a series of 5 independently conducted experiments which show the clinical course of collagen-induced arthritis (CIA) in DBA/1 mice immunized with chick type II collagen/CFA. Male DBA/1 mice were immunized with 20 μg chick type Ii collagen emulsified in CFA on days zero and 28. The mammals were followed for a total of 70 days for clinical signs of arthritis, joint erythema, edema, and loss of function. That data represent the means and standard deviations of incidence of arthritis and spontaneous remission from 5 separate experiments using 10-15 mice per experiment. p As noted by others, Stuart, J. M., Townes, A. S., and Knag, A. H., Ann. Rev. Immunol. […] Histologic analysis (not shown) confirmed extensive mononuclear infiltration and pannus formation as reported by others using similar techniques, Wooley, P. H., Luthra, H. S., Stuart, J. M., and David, C. S., J. Exp. Med. 154:688-700, 1981. […] We used a four point scoring system where zero is a normal limb, 1 being marginal swelling and erythema, 2 being progressively more severe swelling, erythema, and lack of flexibility, and 3 being severe erythema, edema, and often complete fusion of the bone elements and lack of flexibility. […] S., J. Exp. Med. 154:688-700, 1981.
Male DBA/1 (obtained from Jackson Laboratories, Bar Harbor, Me.) were used at 8 to 12 weeks of age. The mice were immunized intradermally at the base of the tail on day zero and again on day 28 with 20 μg chick type II collagen, prepared exactly as described by others, Trentham, D. E., Townes, A. S., and Kang, A. H., J. Exp. Med. 146:857-858, 1977, or obtained commercially (Genzyme, Boston, Ma.), emulsified in complete Freund's adjuvant (Difco, Ann Arbor, Mi.). The mammals were examined visually twice weekly for arthritic signs, swollen and erythremic limbs. Induction of CIA-associated histopathology was assessed by evaluation of paraffin sections of normal limbs, and limbs obtained from mammals with various stages of the disease essentially as described by others, Wooley, P. H., Luthra, H. S., Stuart, J. M., and David, C. S., J. Exp. Med 154:688-700, 1981.
n-Docosanol was suspended in Pluronic F68® (Trademark of BASF Corp; chemical composition, poloxamer 188, a non-ionic detergent block co-polymer of propylene oxide and ethylene oxide) as follows: Pluronic F-68 (mw 8,400; BASF Corp., Parsippany, N.J.) was diluted to 10 mg/ml in warm (37° C.) Dulbecco's high glucose modified Eagle's medium (DMEM; Whittaker Bioproducts, Walkersville, Md.), and the solution then heated to 50° C. n-Docosanol was added at 10 mg/ml to the Pluronic F-68 in DMEM and the solution further heated to 86° C. wile sonicating (Branson 450 sonifier) for 21 minutes at an initial output of 65 watts. The resulting stock suspension contained 10 mg/ml of n-docosanol particles of 0.03-0.3 microns. The corresponding control solution was prepared identically except the n-docosanol was excluded.
Adult DBA/1 mice were immunized with collagen/CFA as described in […], and on day 44 after primary immunization the mammals were given a clinical score and placed in one of three groups. […] One group was treated once daily with 5 mg of n-docosanol as indicated in FIG. 3 (0.5 ml of 10 mg/ml n-docosanol in 10 mg/ml Pluronic F-68), half of which was given intravenously and the other half given subcutaneously. Another group was treated with 5 mg Pluronic F-68 control in a similar manner. The last group was left untreated.
The effects of n-docosanol on CIA in DBA/1 Mice are depicted in FIG. 3. Adult DBA/1 male mice were immunized with collagen/CFA as described in the legend to FIG. 2. […]

On to `CCCCCCCCCCCCCCCCCCCCCCCCCCCCCCCCO` [C-32], for which the plant growth activity result in the experiment on growth of plants is “do not possess such physiological activity, or at least have very much less physiological activity in plant growth”.
For `CCCCCCCCCCCCCCCCCCCCCCCCO` [tetracosanol], in experiment [1], the “physical performance of athletes” value is recorded as “improved physical performance of athletes”.
As for `CCCCCCCCCCCCCCCCCCCCCCCCCCO` [hexacosanol], in experiment [1], the “physical performance of athletes” value was “improved physical performance of athletes”.
Regarding `CCCCCCCCCCCCCCCCCCCCCCCCCCCCO` [octacosanol], the plant growth activity entry with growth of plants was “do not possess such physiological activity, or at least have very much less physiological activity in plant growth”. Also, the “physical performance of athletes” value in experiment [1] is “improved physical performance of athletes”.
For the compound `Cc1cn([C@H]2C[C@H](N=[N+]=[N-])[C@@H](CO)O2)c(=O)[nH]c1=O` [AZT, reference compound], the Plaques/culture is on record as 34 ± 3 Plaques/culture in experiment [2] (0.5 μg/ml, 10^2 input); 657 ± 24 Plaques/culture in experiment [2] (0.5 μg/ml, 10^3 input); 43 ± 3 Plaques/culture in experiment [2] (5 μg/ml, 10^2 input); 382 ± 59 Plaques/culture in experiment [2] (5 μg/ml, 10^3 input); 23 ± 5 Plaques/culture in experiment [2] (50 μg/ml, 10^2 input); 131 ± 10 Plaques/culture in experiment [2] (50 μg/ml, 10^3 input). Further, the Plaques/culture in experiment [2] (500 μg/ml, 10^2 input) came out at 5 ± 3 Plaques/culture; in experiment [2] (500 μg/ml, 10^3 input), 43 ± 6 Plaques/culture. Also, the inhibition at 0.5 µg/mL in experiment [2] (0.5 μg/ml, 10^2 input) was determined as 69%; in experiment [2] (0.5 μg/ml, 10^3 input) it was 14%. Besides, the inhibition at 5 µg/mL turned out to be 60% in experiment [2] (5 μg/ml, 10^2 input) and 50% in experiment [2] (5 μg/ml, 10^3 input). Moreover, the inhibition at 50 µg/mL in experiment [2] (50 μg/ml, 10^2 input) was 79%; in experiment [2] (50 μg/ml, 10^3 input), 83%. Moreover, the inhibition at 500 µg/mL in experiment [2] (500 μg/ml, 10^2 input) amounted to 95%; in experiment [2] (500 μg/ml, 10^3 input) it was 94%.
For `CCCCCCCCCCCCCCCCCCCCCCCCCCCCCCO` [1-triacontanol], in the experiment with growth of plants, the plant growth activity entry is on record as “stimulates the growth of plants”. Moreover, the “physical performance of athletes” value in experiment [1] was “improved physical performance of athletes”. Also, in the experiment with inflammatory disorders, the anti-inflammatory effectiveness entry is “the aerosol carrier destroyed the effect of triacontanol”.
As for `CCCCCCCCCCCCCCCCCCCCCCO` [C-22 Alcohol, n-docosanol], the mean clinical score entry in experiment [3] (24 hours after the first treatment, vs untreated or control-treated, 5 mg once daily, half i.v., half s.c.) was “significant decrease in mean clinical score”; in experiment [3] (after further regimen of 3 treatments (days 50-52)), “another significant decrease in mean clinical score”; in experiment [3] (day 49, 48 hours after the last injection) it was “a rise in mean clinical score”. Besides, in experiment [3] (after further regimen of 3 treatments), the “P value, decrease in mean clinical score vs untreated” value amounted to 0.001. Further, the “P value, decrease in mean clinical score vs control-treated” value in experiment [3] (after further regimen of 3 treatments, Pluronic F-68 control) is 0.03. Further, the “day of first complete clinical remission” value in experiment [3] (after primary immunization (3 days after initial treatment)) came out at 47 days. Further, in experiment [3] (by day 55 after primary immunization), the clinically normal mammals came to 100%. Moreover, in experiment [3] (complete clinical remission), the “lag of remission in untreated or control-treated groups behind n-docosanol-treated group” value lay within 8 to 9 days. The “occurrence of remission from CIA” value in experiment [3] (panel B of FIG. 3) was “hastened the occurrence of remission from CIA”. Besides, the Plaques/culture in experiment [2] (0.5 μg/ml, 10^2 input) turned out to be 110 ± 2 Plaques/culture; in experiment [2] (0.5 μg/ml, 10^3 input) it was 703 ± 88 Plaques/culture; in experiment [2] (5 μg/ml, 10^2 input), 84 ± 12 Plaques/culture; in experiment [2] (5 μg/ml, 10^3 input), 561 ± 50 Plaques/culture; in experiment [2] (50 μg/ml, 10^2 input), 72 ± 24 Plaques/culture; in experiment [2] (50 μg/ml, 10^3 input), 562 ± 11 Plaques/culture. Besides, the Plaques/culture in experiment [2] (500 μg/ml, 10^2 input) came out at 13 ± 2 Plaques/culture; in experiment [2] (500 μg/ml, 10^3 input) it was 401 ± 5 Plaques/culture. The inhibition at 0.5 µg/mL amounted to 19% in experiment [2] (0.5 μg/ml, 10^2 input) and 14% in experiment [2] (0.5 μg/ml, 10^3 input). For the same compound, the inhibition at 5 µg/mL is 36% in experiment [2] (5 μg/ml, 10^2 input) and 31% in experiment [2] (5 μg/ml, 10^3 input). Also, the inhibition at 50 µg/mL in experiment [2] (50 μg/ml, 10^2 input) came out at 45%; in experiment [2] (50 μg/ml, 10^3 input), 31%. For the same compound, the inhibition at 500 µg/mL in experiment [2] (500 μg/ml, 10^2 input) was determined as 90%; in experiment [2] (500 μg/ml, 10^3 input), 51%. This compound also displayed an inhibition at 0.06 µg/mL in experiment [2] (C-22 alcohol 0.06 μg/ml, 100 PFU/ml (10^2 input)) of 7%. The inhibition at 0.6 µg/mL in experiment [2] (C-22 alcohol 0.6 μg/ml, 100 PFU/ml (10^2 input)) came to 22%. In experiment [2] (C-22 alcohol 6 μg/ml, 100 PFU/ml (10^2 input)), this compound gave an inhibition at 6 µg/mL of 40%. The same compound registered an inhibition at 60 µg/mL in experiment [2] (C-22 alcohol 60 μg/ml, 100 PFU/ml (10^2 input)) of 89%.

(Values after patent US5166219A, “Systemic anti-inflammatory treatment” (Lidak Pharmaceuticals, priority 1991, dated 1992).)
